SMILES strings stand for the structures.

We go through 15 compounds from patent US8039495B2, “Biphenyl carboxylic acids and bioisosteres as glycogen synthase activators” (Hoffman-La Roche Inc., priority 2009, dated 2011).

This assay relates to glycogen synthase. As to the kind of experiment: Glycogen Synthase (GS) Assay. Type of assay: biochemical. To be noted: for EC50: compound concentration needed to give 50% maximum activation; for GS SC200: compound concentration needed to stimulate 200% of the enzyme activity. The protocol:
Twelve μL per well of substrate solution containing glycogen (4.32 mg/ml), 2.67 mM UDP-glucose, 21.6 mM phospho(enol)pyruvate and 2.7 mM NADH in 30 mM glycylglycine, pH 7.3 buffer was added into a polystyrene 384-well assay plate (BD Biosciences).
Compound solutions (8 μL/well) at various concentrations (0-300 μM) were added to the assay plate (columns 5-24). Compound solution contains 30 mM glycylglycine, pH 7.3, 40 mM KCl, 20 mM MgCl2, 9.2% DMSO, with (columns 15-24) or without (columns 5-14) 20 mM glucose 6-phosphate.
Enzyme solution (12 μL/well) containing glycogen synthase (16.88 μg/ml), pyruvate kinase (0.27 mg/ml), lactate dehydrogenase (0.27 mg/ml) in 50 mM Tris-HCl, pH 8.0, 27 mM DTT and bovine serum albumin (BSA, 0.2 mg/ml) was added to the assay plate (columns 3-24). As a blank control, enzyme solution without glycogen synthase was added into the top half wells of columns 1-2. To the bottom half wells of columns 1-2 were added a known activator, glucose 6-phosphate (at final concentration 5 mM) in addition to the enzyme solution. The reaction mixture was incubated at room temperature. The assay plate was then read for absorbance at 340 nm on an Envision reader every 3 minutes up to a total of 15 minutes.
The enzyme activity (with or without compound) was calculated by the reaction rate and represented by the optical density change (δOD) per minute. Percent stimulation of glycogen synthase activity by a compound at various concentrations was calculated by the following formula: % stimulation=100*Rs/Rt,
Where Rs is the reaction rate of the enzyme in the presence of compound and Rt is the reaction rate of the enzyme in the absence of compound.
SC200 is defined as the compound concentration that is needed to stimulate 200% of the enzyme activity. EC50 is defined as the compound concentration that is needed to give 50% maximum activation.

Turning to `COc1cc(F)c(F)cc1-c1ccc(OCc2cccc(C(=O)N3CCC[C@H]3C(=O)O)c2)cc1` [Example 2, (S)-1-[3-(4′,5′-Difluoro-2′-methoxy-biphenyl-4-yloxymethyl)-benzoyl]-pyrrolidine-2-carboxylic acid], the EC50 (usually the concentration needed to bring the measured effect to its halfway point) was 140 nM and the “GS SC200” value amounted to 0.02 µM.

For `Cc1cc(F)c(F)cc1-c1ccc(OCc2cccc(C(=O)N3CCC[C@H]3C(=O)O)c2)cc1` [Example 3, (S)-1-[3-(4′,5′-Difluoro-2′-methyl-biphenyl-4-yloxymethyl)-benzoyl]-pyrrolidine-2-carboxylic acid], the EC50 was found to be 40 nM and the “GS SC200” value was 0.001 µM.

For `COc1cc(F)c(F)cc1-c1ccc(OCc2nc(C(=O)N(CC(=O)O)C(C)(C)C)cs2)cc1` [Example 9, {tert-Butyl-[2-(4′,5′-difluoro-2′-methoxy-biphenyl-4-yloxymethyl)-thiazole-4-carbonyl]-amino}-acetic acid], the response was half-maximal at 110 nM (EC50) and the “GS SC200” value was 0.01 µM.

Take `Cc1cc(F)c(F)cc1-c1ccc(OCc2cccc(C(=O)N(C)CC(=O)O)c2)cc1` [Example 4, {[3-(4′,5′-Difluoro-2′-methyl-biphenyl-4-yloxymethyl)-benzoyl]-methyl-amino}-acetic acid]: the EC50 was found to be 80 nM and the “GS SC200” value was 0.01 µM.

`COc1cc(F)c(F)cc1-c1ccc(OCc2cccc(C(=O)N(C)CC(=O)O)c2)cc1` [Example 7, {[3-(4′,5′-Difluoro-2′-methoxy-biphenyl-4-yloxymethyl)-benzoyl]-methyl-amino}-acetic acid]: the EC50 turned out to be 100 nM and the “GS SC200” value came to 0.02 µM.

`COc1cc(F)c(F)cc1-c1ccc(OCc2cccc(C(=O)N(C)CC(=O)O)c2)cc1F` [Example 11, {Methyl-[3-(2,4′,5′-trifluoro-2′-methoxy-biphenyl-4-yloxymethyl)-benzoyl]-amino}-acetic acid]: the response was half-maximal at 160 nM (EC50) and the “GS SC200” value is 0.01 µM.

With `COc1cc(F)c(F)cc1-c1ccc(OCc2cccc(C(=O)N3CCC[C@@H]3C(=O)O)c2)cc1` [Example 15, (R)-1-[3-(4′,5′-Difluoro-2′-methoxy-biphenyl-4-yloxymethyl)-benzoyl]-pyrrolidine-2-carboxylic acid], a half-maximal effect (EC50) was put at 220 nM and the “GS SC200” value was 0.05 µM.

On to `CN(CC(=O)O)C(=O)c1cccc(COc2ccc(-c3cc(F)c(F)cc3F)cc2F)c1` [Example 14], for which the EC50 was 100 nM and the “GS SC200” value worked out at 0.01 µM.

In the case of `COc1cc(F)c(F)cc1-c1ccc(OCc2cc(C(=O)N(C)CC(=O)O)ccc2F)cc1` [Example 13, {[3-(4′,5′-Difluoro-2′-methoxy-biphenyl-4-yloxymethyl)-4-fluoro-benzoyl]-methyl-amino}-acetic acid], the EC50 was determined as 80 nM and the “GS SC200” value stood at 0.004 µM.

`O=C(O)[C@@H]1CCCN1C(=O)c1cccc(COc2ccc(-c3ccc(F)cc3F)cc2)c1` [Example 1, (S)-1-[3-(2′,4′-Difluoro-biphenyl-4-yloxymethyl)-benzoyl]-pyrrolidine-2-carboxylic acid]: the response was half-maximal at 120 nM (EC50) and the “GS SC200” value is 0.02 µM.

With `CN(CC(=O)O)C(=O)c1cccc(COc2ccc(-c3cc(F)c(F)cc3F)cc2)c1` [Example 10, {Methyl-[3-(2′,4′,5′-trifluoro-biphenyl-4-yloxymethyl)-benzoyl]-amino}-acetic acid], the EC50 was 100 nM and the “GS SC200” value is 0.04 µM.

In the case of `CN(CC(=O)NS(C)(=O)=O)C(=O)c1cccc(COc2ccc(-c3cc(F)c(F)cc3F)cc2)c1` [Example 5, N-(2-Methanesulfonylamino-2-oxo-ethyl)-N-methyl-3-(2′,4′,5′-trifluoro-biphenyl-4-yloxymethyl)-benzamide], the EC50 turned out to be 200 nM and the “GS SC200” value was 0.07 µM.

With `COc1cc(F)c(F)cc1-c1ccc(OCc2cccc(C(=O)N(CC(=O)O)C(C)(C)C)c2)cc1` [Example 8, {tert-Butyl-[3-(4′,5′-difluoro-2′-methoxy-biphenyl-4-yloxymethyl)-benzoyl]-amino}-acetic acid], the EC50 stood at 200 nM and the “GS SC200” value was found to be 0.01 µM.

Turning to `O=C(c1cccc(COc2ccc(-c3cc(F)c(F)cc3F)cc2)c1)N1CCC[C@H]1c1nnn[nH]1` [Example 6, [(S)-2-(1H-Tetrazol-5-yl)-pyrrolidin-1-yl]-[3-(2′,4′,5′-trifluoro-biphenyl-4-yloxymethyl)-phenyl]-methanone], the response was half-maximal at 2100 nM (EC50) and the “GS SC200” value came out at 0.59 µM.

In the case of `O=C(NS(=O)(=O)C1CC1)c1cccc(COc2ccc(-c3cc(F)c(F)cc3F)cc2)c1` [Example 12, Cyclopropanesulfonic acid 3-(2′,4′,5′-trifluoro-biphenyl-4-yloxymethyl)-benzoylamide], the concentration giving a half-maximal response (EC50) was found to be 690 nM and the “GS SC200” value is 0.14 µM.
